Results reported in article PMC3062473 (ChemMedChem, 2010).

Columns and labels:
[1] = target: T1, Caspase 3 (Homo sapiens, UniProt P42574); test: Reaction Biology caspase panel; assay type: biochemical; conditions: read-out: Caspase 3 IC50; (Z-DEVD)2-R110 substrate; three separate experiments
T1 sequence (P42574 29-175 limits assumed): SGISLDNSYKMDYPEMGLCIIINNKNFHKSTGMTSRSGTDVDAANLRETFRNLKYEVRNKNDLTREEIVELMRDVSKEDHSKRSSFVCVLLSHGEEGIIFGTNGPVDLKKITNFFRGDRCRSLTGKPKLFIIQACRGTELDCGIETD
T1 sequence (P42574 176-277 limits assumed): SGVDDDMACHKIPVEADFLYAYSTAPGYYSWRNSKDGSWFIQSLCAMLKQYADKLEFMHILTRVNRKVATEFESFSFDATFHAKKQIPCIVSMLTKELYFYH

[2] = target: T2, Caspase 4 (Homo sapiens, UniProt P49662); test: Reaction Biology caspase panel; assay type: biochemical; conditions: read-out: Caspase 4 IC50; (Z-LEHD)2-R110 substrate; three separate experiments
T2 sequence (P49662 81-270 limits assumed): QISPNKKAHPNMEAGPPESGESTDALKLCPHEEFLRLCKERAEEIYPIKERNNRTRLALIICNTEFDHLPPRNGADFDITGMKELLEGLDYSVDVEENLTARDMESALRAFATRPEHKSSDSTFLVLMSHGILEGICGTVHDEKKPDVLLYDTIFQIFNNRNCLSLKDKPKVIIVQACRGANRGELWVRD
T2 sequence (P49662 290-377 limits assumed): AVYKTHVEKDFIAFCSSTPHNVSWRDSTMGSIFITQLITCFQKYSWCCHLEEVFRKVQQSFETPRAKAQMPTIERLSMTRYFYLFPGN

[3] = target: T3, Caspase 7 (Homo sapiens, UniProt P55210); test: Reaction Biology caspase panel; assay type: biochemical; conditions: read-out: Caspase 7 IC50; (Z-DEVD)2-R110 substrate; three separate experiments
T3 sequence (P55210 24-198 limits assumed): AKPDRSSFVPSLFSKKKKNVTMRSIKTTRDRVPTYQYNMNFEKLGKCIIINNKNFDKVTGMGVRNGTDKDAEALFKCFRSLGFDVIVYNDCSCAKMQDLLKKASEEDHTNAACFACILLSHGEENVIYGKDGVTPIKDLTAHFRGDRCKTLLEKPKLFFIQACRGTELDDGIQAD
T3 sequence (P55210 207-303 limits assumed): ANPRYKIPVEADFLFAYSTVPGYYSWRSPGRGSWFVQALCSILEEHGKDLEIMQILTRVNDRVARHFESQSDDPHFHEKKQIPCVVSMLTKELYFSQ

[4] = target: T4, Caspase 10 (Homo sapiens, UniProt Q92851); test: Reaction Biology caspase panel; assay type: biochemical; conditions: read-out: Caspase 10 IC50; (Z-LEHD)2-R110 substrate; three separate experiments
T4 sequence (Q92851 220-415 limits assumed): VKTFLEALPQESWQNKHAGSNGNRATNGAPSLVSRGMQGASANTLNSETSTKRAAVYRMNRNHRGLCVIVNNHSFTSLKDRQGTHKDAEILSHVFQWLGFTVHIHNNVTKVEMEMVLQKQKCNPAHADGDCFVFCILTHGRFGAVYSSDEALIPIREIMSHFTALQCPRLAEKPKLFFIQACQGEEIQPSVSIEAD
T4 sequence (Q92851 416-521 limits assumed): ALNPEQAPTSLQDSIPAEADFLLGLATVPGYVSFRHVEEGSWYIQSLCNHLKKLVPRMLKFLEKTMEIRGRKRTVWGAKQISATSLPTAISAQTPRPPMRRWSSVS

[5] = Aqueous degradation study by LCMS over 96 hours; assay type: physicochemical; conditions: up to 96 hours
[6] = target: T5, caspase 1 (Homo sapiens, UniProt P29466); conditions: read-out: Ki caspase 1; cited from earlier work
T5 sequence (P29466 120-297 limits assumed): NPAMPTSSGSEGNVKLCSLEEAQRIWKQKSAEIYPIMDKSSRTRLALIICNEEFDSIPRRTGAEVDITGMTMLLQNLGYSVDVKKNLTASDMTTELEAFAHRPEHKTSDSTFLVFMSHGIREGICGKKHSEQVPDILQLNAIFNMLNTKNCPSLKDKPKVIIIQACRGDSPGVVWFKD
T5 sequence (P29466 317-404 limits assumed): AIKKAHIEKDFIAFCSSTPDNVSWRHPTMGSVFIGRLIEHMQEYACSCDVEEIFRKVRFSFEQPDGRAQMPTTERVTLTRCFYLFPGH

[7] = target: Caspase 8 (Homo sapiens, UniProt Q14790); conditions: read-out: Ki caspase 8; cited from earlier work
[8] = target: T1, Caspase 3; conditions: cited from earlier work
[9] = tested on: cathepsin B; conditions: cited from earlier work
[10] = tested on: trypsin; conditions: cited from earlier work

Sequence of Caspase 8 (Q14790 217-374 limits assumed): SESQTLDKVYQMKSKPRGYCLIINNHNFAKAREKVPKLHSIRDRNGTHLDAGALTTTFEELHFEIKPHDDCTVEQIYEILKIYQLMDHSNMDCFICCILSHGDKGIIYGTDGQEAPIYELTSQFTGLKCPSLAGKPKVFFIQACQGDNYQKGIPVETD
Sequence of Caspase 8 (Q14790 385-479 limits assumed): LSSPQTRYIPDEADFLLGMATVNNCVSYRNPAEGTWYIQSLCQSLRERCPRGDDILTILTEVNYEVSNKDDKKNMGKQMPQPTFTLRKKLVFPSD

IC50 [1]: > 10000 nM | IC50 [2]: 14.5 nM | IC50 [3]: > 10000 nM | IC50 [4]: 66.5 nM | aqueous stability (in words) ([5]; acidic (pH 2)): very stable | aqueous stability (in words) ([5]; basic (pH 8)): moderate | aqueous stability (in words) ([5]; neutral (pH 7)): very stable
SMILES: CC(C)(C)[C@H](NC(=O)c1ccc(N)c(Cl)c1)C(=O)N1CCC[C@H]1C(=O)N[C@H](C=O)CC(=O)O [Compound 2b, reference compound]
Ki [6]: < 1 nM | Ki [7]: 100 nM | activity against caspase 3 [8]: little activity | activity against cathepsin B [9]: little activity | activity against trypsin [10]: little activity
